Key:
KAT-7 = KAT-7 (Homo sapiens (Human), UniProt O95251); experiment: KAT-7 biochemical inhibition assay (SAMDI mass spectrometry)
Outline: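 KAT-7 (6 nM) was pre-incubated with serially diluted compound (2% DMSO) in Tris pH 8.0 with DTT. Reaction with 1 μM peptide and 2 μM acetyl-CoA ran 120 min at 25 °C and was stopped with 0.5% formic acid. Acetylation was read by SAMDI-TOF mass spectrometry to give IC50.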

KAT-6A = KAT-6A (Homo sapiens (Human), UniProt Q92794); experiment: KAT-6A biochemical inhibition assay (SAMDI mass spectrometry)
Chain of KAT-6A (Q92794 other isoform, or with tags, fused parts or gaps): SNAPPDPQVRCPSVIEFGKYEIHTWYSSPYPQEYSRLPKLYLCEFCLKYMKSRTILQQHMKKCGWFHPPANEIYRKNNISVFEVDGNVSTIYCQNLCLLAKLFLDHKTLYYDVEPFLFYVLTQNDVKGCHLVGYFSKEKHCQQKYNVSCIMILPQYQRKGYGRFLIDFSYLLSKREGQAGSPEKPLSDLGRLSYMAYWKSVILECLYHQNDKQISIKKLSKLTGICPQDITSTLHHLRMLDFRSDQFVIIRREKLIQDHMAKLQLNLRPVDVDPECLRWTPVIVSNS
Outline: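 Enzyme (12.5 nM final) pre-incubated with serially diluted compounds (2% DMSO final) in 50 mM Tris pH 8.0 with Tween20, gelatin and 1 mM DTT. Reaction started with 1 μM peptide substrate and 1 μM acetyl-CoA, run 90 min at 25 °C, quenched with 0.5% formic acid, read by SAMDI-TOF mass spectrometry; IC50 derived.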

KAT-5 = KAT-5 (Homo sapiens (Human), UniProt Q92993); experiment: KAT-5 biochemical inhibition assay (SAMDI mass spectrometry)
Chain of KAT-5 (Q92993 other isoform, or with tags, fused parts or gaps): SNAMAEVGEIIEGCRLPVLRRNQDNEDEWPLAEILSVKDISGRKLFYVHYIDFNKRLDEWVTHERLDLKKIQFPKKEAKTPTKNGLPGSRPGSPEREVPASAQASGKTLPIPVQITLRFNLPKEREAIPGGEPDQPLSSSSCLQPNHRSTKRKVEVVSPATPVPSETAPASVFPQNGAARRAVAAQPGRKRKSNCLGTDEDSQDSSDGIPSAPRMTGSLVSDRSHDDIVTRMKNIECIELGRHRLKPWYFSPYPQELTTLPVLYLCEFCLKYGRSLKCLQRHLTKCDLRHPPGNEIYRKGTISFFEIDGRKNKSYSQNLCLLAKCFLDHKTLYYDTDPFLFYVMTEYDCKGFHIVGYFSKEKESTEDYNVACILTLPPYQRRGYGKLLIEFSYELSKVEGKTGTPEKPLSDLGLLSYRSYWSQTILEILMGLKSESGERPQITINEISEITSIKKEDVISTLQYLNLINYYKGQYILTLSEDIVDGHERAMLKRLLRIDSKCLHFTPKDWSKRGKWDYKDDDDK
Outline: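 KAT-5 at 9 nM final was preincubated with serially diluted compound (2% DMSO) in 50 mM Tris pH 8.0 with 1 mM DTT. Reaction ran with 1 μM peptide substrate and 0.5 μM acetyl-CoA for 90 min at 25° C, was quenched with 0.5% formic acid, and was read by SAMDI-TOF mass spectrometry.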

KAT-8 = KAT-8 (Homo sapiens (Human), UniProt Q9H7Z6); experiment: KAT-8 biochemical inhibition assay (SAMDI mass spectrometry)
Chain of KAT-8 (Q9H7Z6 other isoform, or with tags, fused parts or gaps): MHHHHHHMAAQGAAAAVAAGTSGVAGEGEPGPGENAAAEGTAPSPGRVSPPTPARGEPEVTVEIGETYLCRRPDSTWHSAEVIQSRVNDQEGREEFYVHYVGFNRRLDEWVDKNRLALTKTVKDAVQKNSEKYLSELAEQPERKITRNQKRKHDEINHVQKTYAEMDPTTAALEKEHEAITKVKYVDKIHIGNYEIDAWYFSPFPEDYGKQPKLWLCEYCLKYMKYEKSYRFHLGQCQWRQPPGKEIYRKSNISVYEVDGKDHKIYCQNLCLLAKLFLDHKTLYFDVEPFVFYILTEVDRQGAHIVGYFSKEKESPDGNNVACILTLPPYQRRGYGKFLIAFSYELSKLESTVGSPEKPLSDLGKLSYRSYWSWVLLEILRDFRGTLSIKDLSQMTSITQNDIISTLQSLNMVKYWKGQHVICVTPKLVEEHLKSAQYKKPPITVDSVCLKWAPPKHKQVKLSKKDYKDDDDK
Outline: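 Compounds in 2% DMSO pre-incubated with 12.5 nM enzyme in 50 mM Tris pH 8.0 with Tween20, gelatin and 1 mM DTT. Then 1 μM peptide and 5 μM acetyl-CoA were added, 90 min at 25 °C; formic acid stop and SAMDI-TOF mass spectrometry for IC50.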

Chain of KAT-7 (O95251 other isoform, or with tags, fused parts or gaps): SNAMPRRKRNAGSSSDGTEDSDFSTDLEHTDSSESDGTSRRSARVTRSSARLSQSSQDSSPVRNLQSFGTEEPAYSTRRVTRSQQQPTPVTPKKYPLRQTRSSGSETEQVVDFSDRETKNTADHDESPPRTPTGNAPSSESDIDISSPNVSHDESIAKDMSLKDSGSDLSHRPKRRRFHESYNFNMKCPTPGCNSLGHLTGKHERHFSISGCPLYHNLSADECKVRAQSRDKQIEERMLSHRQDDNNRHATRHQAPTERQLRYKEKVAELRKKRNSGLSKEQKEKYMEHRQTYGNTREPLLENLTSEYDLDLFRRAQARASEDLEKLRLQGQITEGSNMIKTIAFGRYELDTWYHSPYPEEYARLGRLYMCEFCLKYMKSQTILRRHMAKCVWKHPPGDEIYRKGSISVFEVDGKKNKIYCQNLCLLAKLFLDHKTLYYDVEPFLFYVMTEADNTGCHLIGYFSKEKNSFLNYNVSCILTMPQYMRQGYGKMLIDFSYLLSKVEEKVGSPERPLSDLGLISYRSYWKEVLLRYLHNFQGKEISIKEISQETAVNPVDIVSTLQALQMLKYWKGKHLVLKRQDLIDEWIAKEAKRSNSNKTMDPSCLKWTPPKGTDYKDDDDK

SMILES | IC50 (KAT-7) [µM] | IC50 (KAT-6A) [µM] | IC50 (KAT-5) [µM] | IC50 (KAT-8) [µM]
Cn1cnc(-c2cc(Cl)c(F)c(C(=O)NNS(=O)(=O)CC3CCC4CCC3N4)c2)c1 (centres unmarked) [Compound I-251] | < 10 | 10 to 50 | 10 to 50 | 10 to 50
Cn1cnc(-c2cc(Cl)c(F)c(C(=O)NNS(=O)(=O)C[C@H]3CCC[C@@H](NC(=O)OC(C)(C)C)C3)c2)c1 [Compound I-252] | < 10 | < 10 | < 10 | 10 to 50
Cn1cnc(-c2cc(Cl)c(F)c(C(=O)NNS(=O)(=O)C[C@H]3CCC[C@@H](N)C3)c2)c1 [Compound I-253] | < 10 | 10 to 50 | 10 to 50 | 10 to 50
Cn1cnc(-c2cc(Cl)c(F)c(C(=O)NNS(=O)(=O)C[C@H]3CC[C@H](NC(=O)Cc4ccncc4)CC3)c2)c1 [Compound I-254] | < 10 | < 10 | < 10 | 10 to 50
CCC1CC(CS(=O)(=O)NNC(=O)c2cc(-c3cn(C)cn3)cc(Cl)c2F)CC1=O (centres unmarked) [Compound I-255] | < 10 | 10 to 50 | 10 to 50 | 10 to 50
CC(C1CCCCC1)S(=O)(=O)NNC(=O)c1cc(-c2cn(C)cn2)cc(Cl)c1F (centres unmarked) [Compound I-256] | < 10 | < 10 | < 10 | 10 to 50
Cn1cnc(-c2cc(Cl)c(F)c(C(=O)NNS(=O)(=O)c3cncs3)c2)c1 [Compound I-257] | 10 to 50 | 10 to 50 | 10 to 50 | 10 to 50
Cn1cnc(-c2cc(Cl)c(F)c(C(=O)NNS(=O)(=O)C[C@H]3CC[C@H](NC(=O)Cc4cccnc4)CC3)c2)c1 [Compound I-258] | < 10 | < 10 | < 10 | 10 to 50
CCNC(=O)N1[C@H]2CC[C@@H](CS(=O)(=O)NNC(=O)c3cc(-c4cn(C)cn4)cc(Cl)c3F)[C@@H]1CC2 [Compound I-260] | < 10 | < 10 | < 10 | 10 to 50
Cn1cnc(-c2cc(Cl)c(F)c(C(=O)NNS(=O)(=O)C[C@H]3CC[C@H]4CC[C@@H]3N4)c2)c1 [Compound I-261] | 10 to 50 | 10 to 50 | 10 to 50 | 10 to 50
Cn1cnc(-c2cc(Cl)c(F)c(C(=O)NNS(=O)(=O)CC3CCC(F)(F)CC3)c2)c1 [Compound I-262] | < 10 | < 10 | < 10 | 10 to 50
Cn1cnc(-c2cc(Cl)c(F)c(C(=O)NNS(=O)(=O)CC3CCCc4ccccc43)c2)c1 (centres unmarked) [Compound I-264] | < 10 | < 10 | < 10 | 10 to 50
CCNC(=O)N1[C@H]2CC[C@H](CS(=O)(=O)NNC(=O)c3cc(-c4cn(C)cn4)cc(Cl)c3F)[C@@H]1CC2 [Compound I-265] | < 10 | < 10 | < 10 | 10 to 50
CCNC(=O)N[C@@H]1CCC[C@H](CS(=O)(=O)NNC(=O)c2cc(-c3cn(C)cn3)cc(Cl)c2F)C1 [Compound I-266] | < 10 | < 10 | < 10 | 10 to 50
C[C@@H]1CN(C(=O)OC(C)(C)C)C[C@H]1CS(=O)(=O)NNC(=O)c1cc(-c2cn(C)cn2)cc(Cl)c1F [Compound I-267] | < 10 | 10 to 50 | < 10 | 10 to 50
CNC1CCCC(CS(=O)(=O)NNC(=O)c2cc(-c3cn(C)cn3)cc(Cl)c2F)C1 (centres unmarked) [Compound I-280] | < 10 | 10 to 50 | 10 to 50 | 10 to 50
CN1CCN(C2CCCC(CS(=O)(=O)NNC(=O)c3cc(-c4cn(C)cn4)cc(Cl)c3F)C2)C1=O (centres unmarked) [Compound I-281] | < 10 | < 10 | < 10 | 10 to 50
Cn1cnc(-c2cc(Cl)c(F)c(C(=O)NNS(=O)(=O)Cc3cccnc3)c2)c1 [Compound I-282] | < 10 | 10 to 50 | < 10 | 10 to 50
CC(=O)N1C[C@H](CS(=O)(=O)NNC(=O)c2cc(-c3cn(C)cn3)cc(Cl)c2F)[C@@H](C)C1 [Compound I-283] | < 10 | 10 to 50 | 10 to 50 | 10 to 50
Cn1cnc(-c2cc(Cl)c(F)c(C(=O)NNS(=O)(=O)c3nccn3C)c2)c1 [Compound I-284] | < 10 | < 10 | 10 to 50 | 10 to 50

Reference: US11685732B2, “MYST family histone acetyltransferase inhibitors” (Epizyme, Inc., priority 2017, dated 2023)
